Source: patent US6531435B1 (priority 2000, dated 2003)
Like-named read-outs stand apart in the source and are kept apart here.

How the values were obtained:
[1] = tested on: S. aureus MN8; type: cell-based, Staphylococcus aureus; conditions: 24 hours at 35° C.
[2] = tested on: TSST-1; type: cell-based, Staphylococcus aureus

Laureth-4
Final [S. aureus] (×10^9 CFU/ml) [1]: 4.57 ×10^9 CFU/ml
TSST-1 ([2]; 24 hours at 35° C.): 531.8 ng/mL

Steareth-2
Final [S. aureus] (×10^9 CFU/ml) [1]: 5.76 ×10^9 CFU/ml
TSST-1 ([2]; 24 hours at 35° C.): 680.7 ng/mL

PPG-5 Laureth-5
Final [S. aureus] (×10^9 CFU/ml) [1]: 3.82 ×10^9 CFU/ml
TSST-1 [2]: 609.2 ng/mL
